Measured values: patent publication US9486535B2, “Methods of making and using nanostructures” (REGENTS OF THE UNIVERSITY OF MINNESOTA, priority 2012, dated 2016)
Like-named read-outs stand apart in the source and are kept apart here. One block for each molecule: values may come before it. {bisMTX} = bis-methotrexate conjugate; {Fluorescein} = fluorescein label

Assays:
HPB-MLT cells [1] = experiment: Fluorescence confocal microscopy of internalization; format: cell-based; details: 37° C., 1 hr
Protocol: BisMTX-FITC (or BisMTX-PG) and the appropriate DHFR fusion protein were mixed (250 nM) and added to 0.5×10^6 HPB-MLT cells at either 4 or 37° C. for 1 hr in RPMI media. Cells were then pelleted by centrifugation (400×g, 5 min). After being washed twice with PBS (phosphate buffered saline) cells were incubated on Poly-Prep slides coated with poly-L-Lysine (Sigma) at 4 or 37° C. for 30 mins. Cells were then fixed with 4% paraformaldehyde solution for 10 mins and washed thrice with PBS. Finally, cells were treated with ProLong Gold Antifade reagent with DAPI (Invitrogen), a cover slip was applied.
After overnight incubation, images were taken within inner sections of the cells by sequential scanning using a fluorescence confocal microscopy using an Olympus FluoView 1000 BX2 Upright Confocal microscope. Resulting images are the compression of 3-5 z-axis slices. For disassembly experiments after the initial one hour incubation cells were washed twice with PBS before being resuspended in media containing 2 mM trimethoprim, 0.5 mM pyrimethamine or DMSO for three hours at 37° C. after which time they were processed as above. […]
0.5×10^6 HPB-MLT cells were treated with FITC or BODIPY labeled constructs (1 μM) at either 4 or 37° C. for 1 hr in RPMI media. […] After overnight incubation they were imaged by fluorescence confocal microscopy using a Olympus FluoView 1000 BX2 Upright Confocal microscope. […]

HPB-MLT cells [2] = experiment: Flow cytometry binding to CD3+ cells; format: cell-based; details: 4° C., 1 hr
Protocol: 1×10^6 HPB-MLT (or Raji) cells were treated with BisMTX-FITC containing CSAN constructs at the required concentrations at 4° C. for 1 hr in PBS buffer (containing 0.05% BSA and 0.1% sodium azide). Cells were centrifuged (400×g, 10 min), washed twice with PBS/BSA/sodium azide buffer before being resuspended in the same buffer. Their fluorescence was analyzed with a FACSCalibur flow cytometer (BD Biosciences). For competition experiments, HPB-MLT cells were incubated with 40 nM UCHT-1 on ice for 10 mins prior to addition BisMTX-FITC CSAN constructs anti-CD3 constructs (100 nM) followed by washing as above. For disassembly experiments HPB-MLT cells were treated with 150 nM CSANs or 3.95 nM UCHT-1 FITC for 1 hour at 37° C. before being washed twice with RPMI media and finally resuspended in media. […] Samples were stored at 4° C. in the dark until analyzed.
1×10^6 HPB-MLT cells were treated with FITC or BODIPY labeled constructs (1/0.5/0.1 μM) at 4° C. for 1 hr in PBS buffer (containing 0.05% BSA and 0.1% sodium azide). Cells were pelleted (400×g, 10 min), washed twice, and finally resuspended in the supplemented PBS and their fluorescence was analyzed with a FACSCalibur flow cytometer (BD Biosciences). […] After 1 hr incubation cells were washed, resuspended and analyzed by flow cytometry. […]

HPB-MLT cells [3] = experiment: Cytotoxicity analysis (CellTiter 96 AQueous cell proliferation assay); format: cell-based
Protocol: 2.5×10^4 HPB-MLT cells were mixed with the appropriate concentration of antiCD3 CSANs in a total volume of 90 uL and incubated at 37° C. for one hour. […] Cell viability was determined using CellTiter 96 AQueous Non-Radioactive Cell Proliferation Assay (Promega).

DHFR = details: cited from earlier work
Solubility in water = format: physicochemical

Molecule: 5′ Fluorescein-TGTCATATTCCTGGATCC-Bis-MTX 3′ (5' {Fluorescein}, 3' {bisMTX}, sugars by position and backbone not given here; further chemistry not fully specified) [bis-MTX oligo FITC, bis-MTX oligo conjugate labelled with fluorescein]
internalization (confocal) (HPB-MLT cells [1]): no increased cellular fluorescence
cell fluorescence relative to unstained/untreated cells (binding) (HPB-MLT cells [2]): only a small increase in fluorescence

Molecule: CN(Cc1cnc2nc(N)nc(N)c2n1)c1ccc(C(=O)N[C@@H](CCC(=O)O)C(=O)O)cc1 [MTX, methotrexate]
IC50 (HPB-MLT cells [3]; 72 h, read-out: IC50 (inhibition of cellular proliferation)): 0.6 µM
IC80 (HPB-MLT cells [3]; 72 h; read-out: IC80 (inhibition of cellular proliferation)): > 50 µM
enhancement of the affinity of MTX for DHFR by NADPH (DHFR): at least 100 fold

solubility in water (Solubility in water): water soluble
Molecule: CN(Cc1cnc2nc(N)nc(N)c2n1)c1ccc(C(=O)N[C@@H](CCC(=O)NCCCCCN(CCCCCNC(=O)CC[C@@H](NC(=O)c2ccc(N(C)Cc3cnc4nc(N)nc(N)c4n3)cc2)C(=O)O)CCOCCOCCN)C(=O)O)cc1 [bis-MTX-NH2]

Molecule: CN(Cc1cnc2nc(N)nc(N)c2n1)c1ccc(C(=O)N[C@@H](CCC(=O)NCCCCCN(CCCCCNC(=O)CC[C@@H](NC(=O)c2ccc(N(C)Cc3cnc4nc(N)nc(N)c4n3)cc2)C(=O)O)CCOCCOCCNC(=S)Nc2cccc(-c3c4ccc(=O)cc-4oc4cc(O)ccc34)c2C(=O)O)C(=O)O)cc1 [bisMTX-FITC]
internalization (confocal) (HPB-MLT cells [1]): no observable internalized fluorescence

Molecule: bis-methotrexate [bisMTX]
toxicity to HPB-MLT cells (HPB-MLT cells [3]): non-toxic
IC50 (HPB-MLT cells [3]; 72 h; read-out: IC50 (inhibition of cellular proliferation)): > 20 µM
